14 compounds from ChEMBL document CHEMBL1153969, “N-Hydroxy-(4-oxime)-cinnamide: a versatile scaffold for the synthesis of novel histone deacetylase [correction of deacetilase] (HDAC) inhibitors” (Bioorg Med Chem Lett, 2009) can be followed below.

Each structure is given as a SMILES string. Where only a bound is given, the exact number is not on record here.

In one experiment the test system is NCI-H460. Put plainly: Cytotoxicity against human NCI-H460 cells after 48 hrs by SRB assay. Type of experiment: functional, cell-based. The following applies: NCI-H460, 48 h. (In SRB staining, fixed cells bind dye roughly in proportion to their protein.)
Another experiment has as its system HCT-116. Put plainly: Cytotoxicity against human HCT116 cells after 48 hrs by SRB assay. Type of experiment: functional, cell-based. The following applies: HCT-116, 48 h.
The test system of a further experiment is NB-4. Put plainly: Cytotoxicity against human NB4 cells after 48 hrs by SRB assay. The format is functional, cell-based. The following applies: NB-4, 48 h.
Another experiment deals with Histone deacetylase 9 (Homo sapiens, UniProt Q9UKV0). Put plainly: Inhibition of human HDAC9.
Chain of Histone deacetylase 9 (Q9UKV0 whole entry): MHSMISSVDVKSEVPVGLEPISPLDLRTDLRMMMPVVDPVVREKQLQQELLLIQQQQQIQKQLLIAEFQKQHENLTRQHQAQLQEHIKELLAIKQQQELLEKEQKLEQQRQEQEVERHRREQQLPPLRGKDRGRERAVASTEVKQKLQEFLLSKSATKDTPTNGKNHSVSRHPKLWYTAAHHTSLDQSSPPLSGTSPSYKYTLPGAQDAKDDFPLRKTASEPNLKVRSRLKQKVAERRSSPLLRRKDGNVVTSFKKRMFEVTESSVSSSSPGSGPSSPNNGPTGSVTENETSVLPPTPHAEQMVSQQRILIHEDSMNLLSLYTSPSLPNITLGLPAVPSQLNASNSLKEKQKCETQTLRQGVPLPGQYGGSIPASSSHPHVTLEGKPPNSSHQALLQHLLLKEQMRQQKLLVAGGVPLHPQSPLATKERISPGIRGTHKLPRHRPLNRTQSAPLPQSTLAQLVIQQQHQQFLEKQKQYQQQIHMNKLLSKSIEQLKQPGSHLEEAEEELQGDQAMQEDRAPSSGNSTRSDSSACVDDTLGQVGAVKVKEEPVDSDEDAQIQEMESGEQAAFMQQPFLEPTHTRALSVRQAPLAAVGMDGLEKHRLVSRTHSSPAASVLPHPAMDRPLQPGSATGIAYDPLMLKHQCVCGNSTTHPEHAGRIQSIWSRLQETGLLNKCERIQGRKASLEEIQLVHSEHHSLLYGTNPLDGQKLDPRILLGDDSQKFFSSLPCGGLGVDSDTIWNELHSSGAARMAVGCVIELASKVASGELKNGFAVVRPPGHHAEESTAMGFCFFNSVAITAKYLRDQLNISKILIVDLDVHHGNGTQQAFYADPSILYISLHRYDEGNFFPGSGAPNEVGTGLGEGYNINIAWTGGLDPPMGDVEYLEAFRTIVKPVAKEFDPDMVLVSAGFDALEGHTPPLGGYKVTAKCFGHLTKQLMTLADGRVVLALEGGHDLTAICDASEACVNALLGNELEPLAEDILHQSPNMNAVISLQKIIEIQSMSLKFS
Another experiment addresses T1, Histone deacetylase 11 (Homo sapiens, UniProt Q96DB2).
T1 sequence (Q96DB2 whole entry): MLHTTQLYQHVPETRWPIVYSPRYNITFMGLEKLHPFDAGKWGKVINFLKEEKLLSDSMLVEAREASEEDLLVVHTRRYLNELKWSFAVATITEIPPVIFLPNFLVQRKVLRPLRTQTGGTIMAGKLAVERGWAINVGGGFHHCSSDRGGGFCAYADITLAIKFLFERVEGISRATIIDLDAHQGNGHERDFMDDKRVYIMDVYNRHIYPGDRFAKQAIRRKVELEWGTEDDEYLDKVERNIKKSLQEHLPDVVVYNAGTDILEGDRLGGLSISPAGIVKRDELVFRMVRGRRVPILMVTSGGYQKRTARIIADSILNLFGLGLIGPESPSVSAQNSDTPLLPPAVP
Put plainly: Inhibition of human HDAC11.

Another experiment concerns the target Histone deacetylase 5 (Homo sapiens, UniProt Q9UQL6). Put plainly: Inhibition of human HDAC5.
The target of the next experiment is Histone deacetylase 1 (Homo sapiens, UniProt Q13547).
Chain of Histone deacetylase 1 (Q13547 whole entry): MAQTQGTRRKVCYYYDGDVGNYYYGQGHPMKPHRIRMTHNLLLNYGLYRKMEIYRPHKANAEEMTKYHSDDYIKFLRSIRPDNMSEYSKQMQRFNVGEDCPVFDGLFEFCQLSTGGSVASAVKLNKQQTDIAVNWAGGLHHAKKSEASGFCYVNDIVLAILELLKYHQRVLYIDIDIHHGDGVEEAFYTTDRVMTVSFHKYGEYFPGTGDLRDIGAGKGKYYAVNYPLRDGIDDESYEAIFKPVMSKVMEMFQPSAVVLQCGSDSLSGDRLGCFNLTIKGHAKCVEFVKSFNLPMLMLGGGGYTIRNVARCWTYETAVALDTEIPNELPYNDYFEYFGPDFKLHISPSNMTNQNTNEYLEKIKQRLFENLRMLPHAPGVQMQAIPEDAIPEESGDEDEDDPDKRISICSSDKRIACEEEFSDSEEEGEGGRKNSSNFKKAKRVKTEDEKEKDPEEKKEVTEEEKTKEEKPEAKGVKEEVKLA
Another experiment deals with Histone deacetylase 3 (Homo sapiens, UniProt O15379). Put plainly: Inhibition of human HDAC3.
Chain of Histone deacetylase 3 (O15379 whole entry): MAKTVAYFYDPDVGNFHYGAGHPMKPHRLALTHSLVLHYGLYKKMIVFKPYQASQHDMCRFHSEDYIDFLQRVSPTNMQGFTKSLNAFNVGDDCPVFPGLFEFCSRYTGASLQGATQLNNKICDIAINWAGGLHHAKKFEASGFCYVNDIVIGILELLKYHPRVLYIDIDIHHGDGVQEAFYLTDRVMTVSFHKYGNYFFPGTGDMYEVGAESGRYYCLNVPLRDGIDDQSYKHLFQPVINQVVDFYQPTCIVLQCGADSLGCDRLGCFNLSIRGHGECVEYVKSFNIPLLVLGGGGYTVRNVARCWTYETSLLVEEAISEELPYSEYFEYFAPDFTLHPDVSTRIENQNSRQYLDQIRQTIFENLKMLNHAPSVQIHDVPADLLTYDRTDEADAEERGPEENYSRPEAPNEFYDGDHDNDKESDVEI
Experiment [1] addresses T2, Polyamine deacetylase HDAC10 (Homo sapiens, UniProt Q969S8).
T2 sequence (Q969S8 whole entry): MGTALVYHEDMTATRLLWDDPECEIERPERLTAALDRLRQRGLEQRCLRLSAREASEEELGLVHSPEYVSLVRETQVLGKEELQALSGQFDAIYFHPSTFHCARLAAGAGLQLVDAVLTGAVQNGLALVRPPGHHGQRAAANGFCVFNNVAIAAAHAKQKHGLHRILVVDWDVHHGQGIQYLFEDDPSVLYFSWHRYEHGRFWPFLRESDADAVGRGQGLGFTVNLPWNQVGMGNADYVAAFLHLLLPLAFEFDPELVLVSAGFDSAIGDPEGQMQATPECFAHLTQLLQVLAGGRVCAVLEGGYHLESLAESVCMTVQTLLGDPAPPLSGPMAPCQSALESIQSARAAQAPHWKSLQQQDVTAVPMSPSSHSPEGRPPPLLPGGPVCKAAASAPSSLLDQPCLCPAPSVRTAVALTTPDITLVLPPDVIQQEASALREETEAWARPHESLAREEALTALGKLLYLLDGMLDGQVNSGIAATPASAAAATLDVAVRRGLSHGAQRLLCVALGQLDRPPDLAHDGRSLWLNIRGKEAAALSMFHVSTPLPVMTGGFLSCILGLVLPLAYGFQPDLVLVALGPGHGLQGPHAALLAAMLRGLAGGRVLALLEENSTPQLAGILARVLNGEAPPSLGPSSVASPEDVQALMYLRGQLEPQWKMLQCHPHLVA
Put plainly: Inhibition of human HDAC10.

The target of the next experiment is T3, Histone deacetylase 8 (Homo sapiens, UniProt Q9BY41).
T3 sequence (Q9BY41 whole entry): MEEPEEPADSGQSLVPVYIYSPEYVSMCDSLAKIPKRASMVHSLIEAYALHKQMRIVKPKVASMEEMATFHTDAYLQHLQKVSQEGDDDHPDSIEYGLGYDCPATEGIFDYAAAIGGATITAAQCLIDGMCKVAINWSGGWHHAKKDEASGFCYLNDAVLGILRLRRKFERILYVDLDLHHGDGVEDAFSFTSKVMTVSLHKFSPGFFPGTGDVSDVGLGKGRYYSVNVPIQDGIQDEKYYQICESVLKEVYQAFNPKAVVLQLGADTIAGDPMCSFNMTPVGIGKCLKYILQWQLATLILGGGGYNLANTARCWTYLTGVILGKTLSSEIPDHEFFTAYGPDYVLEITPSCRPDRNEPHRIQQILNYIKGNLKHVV
Put plainly: Inhibition of human HDAC8.

Another experiment addresses T4, Histone deacetylase 7 (Homo sapiens, UniProt Q8WUI4).
T4 sequence (Q8WUI4 whole entry): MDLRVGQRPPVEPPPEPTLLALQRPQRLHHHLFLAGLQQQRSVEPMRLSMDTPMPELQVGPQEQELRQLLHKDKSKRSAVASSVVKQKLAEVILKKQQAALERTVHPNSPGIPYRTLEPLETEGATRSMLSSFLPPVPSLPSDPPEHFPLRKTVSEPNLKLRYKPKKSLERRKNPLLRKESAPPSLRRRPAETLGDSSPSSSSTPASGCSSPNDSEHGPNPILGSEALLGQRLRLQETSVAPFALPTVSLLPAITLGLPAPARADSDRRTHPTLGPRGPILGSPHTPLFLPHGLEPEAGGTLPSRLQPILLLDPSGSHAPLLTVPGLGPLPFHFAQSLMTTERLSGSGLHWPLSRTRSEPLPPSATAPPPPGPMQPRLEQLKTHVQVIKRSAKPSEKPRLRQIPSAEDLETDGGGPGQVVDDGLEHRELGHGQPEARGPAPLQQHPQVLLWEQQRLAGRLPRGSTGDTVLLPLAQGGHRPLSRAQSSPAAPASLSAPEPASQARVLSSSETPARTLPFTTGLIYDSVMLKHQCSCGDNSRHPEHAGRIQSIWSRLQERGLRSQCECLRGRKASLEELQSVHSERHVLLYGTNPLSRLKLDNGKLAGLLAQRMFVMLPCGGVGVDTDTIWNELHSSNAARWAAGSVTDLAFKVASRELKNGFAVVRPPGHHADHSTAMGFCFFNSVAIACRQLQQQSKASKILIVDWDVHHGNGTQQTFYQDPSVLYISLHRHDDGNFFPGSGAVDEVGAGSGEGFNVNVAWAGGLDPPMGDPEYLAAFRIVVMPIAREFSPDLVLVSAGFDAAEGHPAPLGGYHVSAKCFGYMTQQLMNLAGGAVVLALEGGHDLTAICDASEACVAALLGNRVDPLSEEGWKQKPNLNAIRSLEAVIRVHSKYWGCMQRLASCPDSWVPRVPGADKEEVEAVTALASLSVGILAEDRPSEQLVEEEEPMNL
Put plainly: Inhibition of human HDAC7.

Experiment [2] deals with T5, Protein deacetylase HDAC6 (Homo sapiens, UniProt Q9UBN7).
T5 sequence (Q9UBN7 whole entry): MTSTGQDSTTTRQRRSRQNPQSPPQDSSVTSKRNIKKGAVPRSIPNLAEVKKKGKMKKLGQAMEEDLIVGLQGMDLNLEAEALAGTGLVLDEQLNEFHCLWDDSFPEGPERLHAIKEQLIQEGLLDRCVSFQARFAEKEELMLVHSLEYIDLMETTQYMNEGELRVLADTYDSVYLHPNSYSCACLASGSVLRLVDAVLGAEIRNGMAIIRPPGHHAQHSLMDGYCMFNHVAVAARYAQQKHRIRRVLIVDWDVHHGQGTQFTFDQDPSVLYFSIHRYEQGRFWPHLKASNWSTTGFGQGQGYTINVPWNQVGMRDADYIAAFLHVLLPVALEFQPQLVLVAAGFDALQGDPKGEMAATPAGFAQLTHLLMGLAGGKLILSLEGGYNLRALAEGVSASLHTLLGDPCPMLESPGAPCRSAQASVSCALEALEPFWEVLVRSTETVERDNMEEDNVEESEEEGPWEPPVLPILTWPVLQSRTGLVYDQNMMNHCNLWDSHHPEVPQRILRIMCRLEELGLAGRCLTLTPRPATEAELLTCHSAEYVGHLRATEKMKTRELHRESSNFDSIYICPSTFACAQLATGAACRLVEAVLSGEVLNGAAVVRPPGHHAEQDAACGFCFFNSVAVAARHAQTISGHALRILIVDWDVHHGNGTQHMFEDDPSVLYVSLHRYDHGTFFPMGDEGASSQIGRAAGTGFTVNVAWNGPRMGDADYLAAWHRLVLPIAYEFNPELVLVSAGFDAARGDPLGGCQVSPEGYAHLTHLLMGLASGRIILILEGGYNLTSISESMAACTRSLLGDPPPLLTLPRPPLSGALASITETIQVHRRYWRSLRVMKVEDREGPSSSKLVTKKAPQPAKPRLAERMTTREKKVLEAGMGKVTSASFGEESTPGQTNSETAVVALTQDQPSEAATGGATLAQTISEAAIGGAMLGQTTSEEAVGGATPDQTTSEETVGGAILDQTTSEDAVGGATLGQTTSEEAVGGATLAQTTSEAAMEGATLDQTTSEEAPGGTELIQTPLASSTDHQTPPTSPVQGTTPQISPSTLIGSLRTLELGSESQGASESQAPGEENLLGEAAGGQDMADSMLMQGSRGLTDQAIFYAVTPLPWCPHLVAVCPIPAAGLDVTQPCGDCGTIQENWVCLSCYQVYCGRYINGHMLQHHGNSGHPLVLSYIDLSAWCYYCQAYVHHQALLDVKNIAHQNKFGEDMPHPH
Put plainly: Inhibition of human HDAC6.

The next experiment deals with Histone deacetylase 4 (Homo sapiens, UniProt P56524).
Chain of Histone deacetylase 4 (P56524 whole entry): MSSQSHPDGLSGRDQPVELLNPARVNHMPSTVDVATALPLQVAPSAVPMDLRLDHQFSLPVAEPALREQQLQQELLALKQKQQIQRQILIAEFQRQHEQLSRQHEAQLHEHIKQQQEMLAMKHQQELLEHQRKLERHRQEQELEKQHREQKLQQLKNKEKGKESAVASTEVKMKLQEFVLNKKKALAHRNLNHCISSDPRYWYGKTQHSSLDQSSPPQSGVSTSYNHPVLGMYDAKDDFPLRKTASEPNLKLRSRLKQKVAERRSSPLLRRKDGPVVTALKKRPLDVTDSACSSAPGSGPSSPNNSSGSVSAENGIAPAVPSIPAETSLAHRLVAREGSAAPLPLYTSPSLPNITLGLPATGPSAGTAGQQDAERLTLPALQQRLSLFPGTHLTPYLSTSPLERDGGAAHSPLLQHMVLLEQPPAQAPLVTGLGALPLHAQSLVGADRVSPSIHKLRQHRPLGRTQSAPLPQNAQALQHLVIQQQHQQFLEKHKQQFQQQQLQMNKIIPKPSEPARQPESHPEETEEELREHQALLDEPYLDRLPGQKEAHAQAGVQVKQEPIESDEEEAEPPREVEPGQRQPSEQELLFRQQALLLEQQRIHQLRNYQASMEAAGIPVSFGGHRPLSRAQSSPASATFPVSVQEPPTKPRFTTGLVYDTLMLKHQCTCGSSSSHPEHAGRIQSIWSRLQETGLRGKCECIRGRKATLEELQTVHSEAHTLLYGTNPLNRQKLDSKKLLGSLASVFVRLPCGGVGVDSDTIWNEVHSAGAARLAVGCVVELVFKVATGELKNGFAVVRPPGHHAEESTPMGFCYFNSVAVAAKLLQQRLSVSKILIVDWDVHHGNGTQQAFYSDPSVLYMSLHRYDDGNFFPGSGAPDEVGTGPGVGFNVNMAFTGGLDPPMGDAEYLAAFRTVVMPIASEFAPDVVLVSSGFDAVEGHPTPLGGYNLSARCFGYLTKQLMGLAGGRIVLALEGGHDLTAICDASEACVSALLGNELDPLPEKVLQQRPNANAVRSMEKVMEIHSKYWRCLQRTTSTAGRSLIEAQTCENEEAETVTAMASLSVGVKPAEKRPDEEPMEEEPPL
The next experiment deals with Histone deacetylase 2 (Homo sapiens, UniProt Q92769). Put plainly: Inhibition of human HDAC2.
Chain of Histone deacetylase 2 (Q92769 whole entry): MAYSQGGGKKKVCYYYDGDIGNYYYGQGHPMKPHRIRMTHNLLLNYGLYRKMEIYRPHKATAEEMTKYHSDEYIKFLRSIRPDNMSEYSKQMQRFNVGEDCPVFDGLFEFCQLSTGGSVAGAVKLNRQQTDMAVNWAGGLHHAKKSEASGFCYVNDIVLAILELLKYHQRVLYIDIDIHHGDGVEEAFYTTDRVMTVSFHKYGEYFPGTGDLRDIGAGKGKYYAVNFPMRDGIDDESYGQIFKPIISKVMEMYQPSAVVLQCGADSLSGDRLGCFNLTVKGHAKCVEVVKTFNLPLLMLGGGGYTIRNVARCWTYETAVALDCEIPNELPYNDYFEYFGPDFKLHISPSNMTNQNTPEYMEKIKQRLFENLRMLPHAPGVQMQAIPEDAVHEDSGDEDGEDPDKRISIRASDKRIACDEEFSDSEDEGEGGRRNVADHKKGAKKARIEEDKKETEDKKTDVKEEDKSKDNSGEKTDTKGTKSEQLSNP

Chain of Histone deacetylase 5 (Q9UQL6 whole entry): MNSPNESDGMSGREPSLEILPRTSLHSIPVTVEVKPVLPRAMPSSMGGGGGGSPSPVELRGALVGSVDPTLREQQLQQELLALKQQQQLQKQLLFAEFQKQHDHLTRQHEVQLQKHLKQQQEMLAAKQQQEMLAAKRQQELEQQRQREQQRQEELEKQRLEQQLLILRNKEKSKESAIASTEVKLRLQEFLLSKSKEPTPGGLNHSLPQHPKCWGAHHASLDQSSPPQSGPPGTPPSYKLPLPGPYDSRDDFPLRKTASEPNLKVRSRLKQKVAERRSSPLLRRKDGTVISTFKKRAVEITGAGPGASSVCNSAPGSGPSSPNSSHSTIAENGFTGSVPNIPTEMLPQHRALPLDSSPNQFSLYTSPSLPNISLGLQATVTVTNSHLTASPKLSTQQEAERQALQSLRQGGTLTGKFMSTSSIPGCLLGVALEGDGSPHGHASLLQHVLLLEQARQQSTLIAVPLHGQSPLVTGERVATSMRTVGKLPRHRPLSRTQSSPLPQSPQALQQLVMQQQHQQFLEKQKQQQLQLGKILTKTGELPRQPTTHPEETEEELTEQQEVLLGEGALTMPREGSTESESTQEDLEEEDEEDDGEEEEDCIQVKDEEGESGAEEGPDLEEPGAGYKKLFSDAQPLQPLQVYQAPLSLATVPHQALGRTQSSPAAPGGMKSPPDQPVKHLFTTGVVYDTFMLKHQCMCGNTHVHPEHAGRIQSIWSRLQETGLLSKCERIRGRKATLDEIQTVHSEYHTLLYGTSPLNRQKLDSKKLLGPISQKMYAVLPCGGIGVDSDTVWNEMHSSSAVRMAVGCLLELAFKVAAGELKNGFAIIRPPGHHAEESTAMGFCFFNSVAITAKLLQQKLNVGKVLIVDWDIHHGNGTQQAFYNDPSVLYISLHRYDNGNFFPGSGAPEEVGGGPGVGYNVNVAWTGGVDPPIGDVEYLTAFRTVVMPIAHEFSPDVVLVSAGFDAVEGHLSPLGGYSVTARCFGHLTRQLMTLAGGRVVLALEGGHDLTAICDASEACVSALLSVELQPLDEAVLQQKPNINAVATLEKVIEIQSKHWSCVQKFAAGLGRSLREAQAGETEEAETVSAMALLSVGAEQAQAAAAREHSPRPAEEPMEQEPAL
Description for Histone deacetylase 4: Inhibition of human HDAC4

As for `O=C(/C=C/c1ccc(/C=N/OCc2ccccc2)cc1)NO`, the IC50 with NCI-H460 was 1.6 µM; with HCT-116, 2.8 µM; in the experiment with NB-4 it was 0.62 µM.
For `O=C(/C=C/c1cccc(/C=N/OCCN2CCOCC2)c1)NO`, in that order: 6.6 µM, 4 µM and 1.9 µM.
As for `O=C(/C=C/c1ccc(C2=NOC(CN3CCOCC3)C2)cc1)NO` (stereo not drawn), the figures for the IC50 in the experiment on NCI-H460 and in the experiment on HCT-116 were 9.9 µM and 3 µM, respectively.
Turning to `C=CCO/N=C/c1ccc(/C=C/C(=O)NO)cc1`, the IC50 with NCI-H460 is 3.2 µM; with HCT-116, 3.5 µM; in the experiment on NB-4, 1.4 µM.
The like results for `Nc1ccccc1NC(=O)/C=C/c1ccc(/C=N/OCCN2CCOCC2)cc1` were, in that order, greater than 20 µM, greater than 20 µM and 8.9 µM.
As to `O=C(/C=C/c1ccc(-c2cc(CN3CCOCC3)on2)cc1)NO`, the IC50 came out at 11.2 µM against Histone deacetylase 9; 7 µM in the experiment on NCI-H460; 6.26 µM against Histone deacetylase 11; 10.8 µM at Histone deacetylase 5; 6.26 µM against Histone deacetylase 1; 3.14 µM at Histone deacetylase 3. In addition, the 50% inhibitory concentration (IC50) was found to be 4 µM with HCT-116, 6.1 µM in [1], 0.127 µM on Histone deacetylase 8 and 22.3 µM against Histone deacetylase 7.
For `O=C(CCc1ccc(/C=N/OCc2ccc([N+](=O)[O-])cc2)cc1)NO`, the values for the half-maximal inhibitory concentration (IC50) with NCI-H460, in the experiment with HCT-116 and with NB-4 were 7.7 µM, 3.1 µM and 0.95 µM, respectively.
Turning to `O=C(/C=C/c1ccc(/C=N/OCc2c(F)c(F)c(F)c(F)c2F)cc1)NO`, the IC50 came to 12 µM on Histone deacetylase 9; 0.661 µM in [2]; 1.6 µM with NCI-H460; 5.48 µM on Histone deacetylase 11; 7.2 µM at Histone deacetylase 5; 5.48 µM against Histone deacetylase 1. Also, the IC50 against Histone deacetylase 3 came out at 2.8 µM; in the experiment with HCT-116 it was 2.4 µM; against Histone deacetylase 4 it was 38.8 µM; at Histone deacetylase 2, 11 µM; in the experiment with NB-4 it was 0.7 µM; in experiment [1], 7.36 µM. For the same compound, at Histone deacetylase 8, the midpoint of inhibition, the IC50, lay at 1.29 µM.
As to `COC(=O)c1ccc(CO/N=C/c2ccc(/C=C/C(=O)NO)cc2)cc1`, the IC50 against Histone deacetylase 9 came out at 6.43 µM; in experiment [2], 0.094 µM; with NCI-H460, 1.7 µM; against Histone deacetylase 11 it was 10.8 µM; against Histone deacetylase 5, 3.67 µM; against Histone deacetylase 1, 1.82 µM. In addition, the half-inhibitory concentration (IC50) is 0.659 µM on Histone deacetylase 3; 1.7 µM in the experiment with HCT-116; 12.9 µM at Histone deacetylase 4; 15.8 µM against Histone deacetylase 2; 0.82 µM with NB-4; 5.43 µM in experiment [1]. Moreover, the IC50 against Histone deacetylase 8 worked out at 0.603 µM.
Take `O=C(C#Cc1ccc(/C=N/OCc2ccc([N+](=O)[O-])cc2)cc1)NO`: the IC50 in the experiment with NCI-H460, with HCT-116 and with NB-4 was greater than 20 µM in each case.
Turning to `O=C(/C=C/c1ccc(/C=N/OCCN2CCOCC2)cc1)NO`, the IC50 is 13.1 µM on Histone deacetylase 9; 0.303 µM in experiment [2]; 2.9 µM in the experiment with NCI-H460; 3.06 µM against Histone deacetylase 11; 7.36 µM against Histone deacetylase 5; 3.06 µM on Histone deacetylase 1. Moreover, the 50% inhibitory concentration (IC50) against Histone deacetylase 3 was found to be 4.08 µM; in the experiment on HCT-116, 1.8 µM; on Histone deacetylase 4, 16.1 µM; at Histone deacetylase 2, 27.7 µM; in the experiment with NB-4, 1.7 µM; in experiment [1] it was 7.84 µM. In addition, the IC50 against Histone deacetylase 8 is 0.235 µM.
Take `O=C(/C=C/c1ccc(/C=N/Oc2ccccc2)cc1)NO`: the 50% inhibitory concentration (IC50) in the experiment with NCI-H460 is 5.1 µM; with HCT-116 it was 3.7 µM; in the experiment with NB-4 it was 2.7 µM.
The like results for `Nc1ccccc1NC(=O)/C=C/c1ccc(/C=N/OCc2ccc([N+](=O)[O-])cc2)cc1` were, in that order, greater than 20 µM, greater than 20 µM and greater than 20 µM.
Regarding `O=C(/C=C/c1ccc(/C=N/O)cc1)NO`, the IC50 stood at 6.3 µM with NCI-H460, 3.5 µM in the experiment on HCT-116 and 2.9 µM with NB-4.

A word on the IC50: it is the concentration needed to halve the response being measured. High values mean weaker potency, low ones greater potency.
